From patent US20100029761A1, “NOVEL COMPOUNDS, PHARMACEUTICAL COMPOSITIONS CONTAINING SAME, AND METHODS OF USE FOR SAME” (priority 2005, published 2010)
Several values for one entry are separate records, joined by “and”; a condition that tells them apart may be missing. Equal values may be shown once.

What was measured:
viral HIV protease = viral HIV protease (Human immunodeficiency virus type 1 group M subtype B, UniProt P04585); conditions: cited from earlier work
[1] = test system: Mycobacterium tuberculosis; conditions: in vitro; cited from earlier work
[2] = target: rat liver acyl-CoA synthetase; conditions: read-out: 50% inhibition of rat liver acyl-CoA synthetase; cited from earlier work
Raji cells = conditions: cited from earlier work
[3] = test system: β-Oxidation of (1-14C) palmitic acid in cells; test: β-Oxidation assay, isolation of acid soluble products; assay type: cell-based; design: unit not given here
Procedure: A 24 well plate with 1 ml per well was prepared with 2.5×10^5 cells /well. The cells were incubated O/N. The next day, a solubilized palmitate solution was prepared. 50 μls of (1−^14C) Palmitic acid was added to a 2 ml centrifuge tube and dried under nitrogen gas. 2 mls of α-CD (α-Cyclodextran)—10 mg/ml in 10 mM Tris were added. This solution was incubated in a 37° C. water bath for 30 minutes. A hot mix was prepared by adding 25 μl of this solution to 2.5 μls of 200 μM Carnitine and 222.5 μl of serum free medium that is used for cells. The cells were then treated with the test compound in triplicate, and incubated. at 37° C. for 60 minutes. The medium was removed and 250 μl of the hot mix were added. The test compound was added again, and further incubated at 37° C. for 60 minutes. The reaction was stopped with 50 μl of 2.6 N HClO4. The contents of the plate were transferred to a 1.5 ml centrifuge tube, and 50 μl of 4N KOH were then added, and the tube incubated in a 60° C. water bath for 30 min. Sodium acetate (1 M, 75 μl) and sulfuric acid (3N, 50 μl) were added to the solution and vortexed. The tube was spun for 7 minutes at 1000 rpm at room temperature. A portion (225 μl) was removed, and the following were added (vortex after each addition, twice at the end): 938 μl of 1:1 Chloroform: Methanol; 468 μl of Chloroform; 281 μl distilled Water. The tubes were spun at 1000 rpm for 5 minutes. The upper phase was removed into a large glass scintillation vial and 5 ml of Budget solvent (scintillation liquid) was added. The tubes were well vortexed. Finally, ^14C was counted for one minute.

## C/C=C/C/C=C/CCC(=O)[C@H]1O[C@H]1C(N)=O [cerulenin, (2s, 3R)-2,3-epoxy-4-oxo-7,10 dodecadienoyl amide]
Viral HIV protease
  concentration for inhibition of viral HIV protease: 5 mg/mL
[1]
  activity against Mycobacterium tuberculosis: no activity

## CCCC=CCC=CC=CC=NN=NO [Triacsin C, 1-hydroxy-3-(E, E, E-2′,4′,7′-undecatrienylidine) triazene]
[2]
  IC50: 8.7 µM
Raji cells
  concentration causing growth inhibition in Raji cells: 1.0 µM

## CCCCCCCCC1OC(=O)C(O)=C1C(=O)OCC (stereo not shown) [Compound 1]
[3]; 0.04 ug/ml
  Beta oxidation: 94 and 103 and 120
[3]; 0.19 ug/ml
  Beta oxidation: 108 and 104 and 113
[3]; 3.13 ug/ml
  Beta oxidation: 113 and 109 and 107
[3]; 12.5 ug/ml
  Beta oxidation: 114 and 107 and 100
[3]; 50 ug/ml
  Beta oxidation: 54 and 49 and 45
[3]; .78 ug/ml
  Beta oxidation: 104 and 106
